Test results taken from patent US20180250280A1 (BAYER PHARMA AKTIENGESELLSCHAFT, priority 2015, published 2018).

What was measured:
human factor XIa = molecular target: T1, human factor XIa (Homo sapiens, UniProt P03951); assay: Measurement of FXIa inhibition (fluorogenic peptide substrate, AMC cleavage); format: biochemical; settings: factor XIa from Kordia 0.45 nM; substrate Boc-Glu(OBzl)-Ala-Arg-AMC 10 μM; 30 min at 22° C.; in some cases averages from multiple determinations
T1 construct: purchased Kordia
Procedure: (§1) The factor XIa inhibition of the substances according to the invention is determined using a biochemical test system which utilizes the reaction of a peptidic factor XIa substrate to determine the enzymatic activity of human factor XIa. Here, factor XIa cleaves from the peptic factor XIa substrate the C-terminal aminomethylcoumarin (AMC), the fluorescence of which is measured. The determinations are conducted in microtitre plates.
Test substances are dissolved in dimethyl sulfoxide and serially diluted in dimethyl sulfoxide (3000 μM to 0.0078 μM; resulting final concentrations in the test: 50 μM to 0.00013 μM). 1 μl of the diluted substance solutions is placed into each of the wells of white microtitre plates from Greiner (384 wells). 20 μl of assay buffer (50 mM of Tris/HCl pH 7.4; 100 mM of sodium chloride; 5 mM of calcium chloride; 0.1% of bovine serum albumin) and 20 μl of factor XIa from Kordia (0.45 nM in assay buffer) are then added successively. After 15 min of incubation, the enzyme reaction is started by addition of 20 μl of the factor XIa substrate Boc-Glu(OBzl)-Ala-Arg-AMC dissolved in assay buffer (10 μM in assay buffer) from Bachem, the mixture is incubated at room temperature (22° C.) for 30 min and fluorescence is then measured (excitation: 360 nm, emission: 460 nm). The measured emissions of the test batches with test substance are compared to those of control batches without test substance (only dimethyl sulfoxide instead of test substance in dimethyl sulfoxide), and IC50 values are calculated from the concentration/activity relationships. Activity data from this test are given in Table A below (in some cases as averages from multiple individual determinations): […]

human plasma kallikrein = molecular target: T2, human plasma kallikrein (Homo sapiens, UniProt P03952); assay: Determination of the plasma kallikrein activity (fluorogenic peptide substrate, AMC cleavage); format: biochemical; settings: plasma kallikrein from Kordia 0.6 nM; substrate H-Pro-Phe-Arg-AMC 10 μM; 30 min at 22° C.; in some cases averages from multiple determinations
T2 construct: purchased Kordia
Procedure: as §1, with “To determine the plasma kallikrein” for “The factor XIa”, “invention,” for “invention is determined using”, “system is used” for “system”, “plasma kallikrein” for “factor XIa”, “plasma kallikrein.” for “factor XIa.”
Test substances are dissolved in dimethyl sulfoxide and serially diluted in dimethyl sulfoxide (3000 μM to 0.0078 μM; resulting final concentrations in the test: 50 μM to 0.00013 μM). 1 μl of the diluted substance solutions is placed into each of the wells of white microtitre plates from Greiner (384 wells). 20 μl of assay buffer (50 mM Tris/HCl pH 7.4; 100 mM sodium chloride solution; 5 mM calcium chloride solution; 0.1% of bovine serum albumin) and 20 μl of plasma kallikrein from Kordia (0.6 nM in assay buffer) are then added successively. After 15 min of incubation, the enzyme reaction is started by addition of 20 μl of the substrate H-Pro-Phe-Arg-AMC dissolved in assay buffer (10 μM in assay buffer) from Bachem, the mixture is incubated at room temperature (22° C.) for 30 min and fluorescence is then measured (excitation: 360 nm, emission: 460 nm). The measured emissions of the test batches with test substance are compared to those of control batches without test substance (only dimethyl sulfoxide instead of test substance in dimethyl sulfoxide), and IC50 values are calculated from the concentration/activity relationships. Activity data from this test are given in Table B below (in some cases as averages from multiple individual determinations): […]

T2 sequence (P03952 391-638 limits assumed): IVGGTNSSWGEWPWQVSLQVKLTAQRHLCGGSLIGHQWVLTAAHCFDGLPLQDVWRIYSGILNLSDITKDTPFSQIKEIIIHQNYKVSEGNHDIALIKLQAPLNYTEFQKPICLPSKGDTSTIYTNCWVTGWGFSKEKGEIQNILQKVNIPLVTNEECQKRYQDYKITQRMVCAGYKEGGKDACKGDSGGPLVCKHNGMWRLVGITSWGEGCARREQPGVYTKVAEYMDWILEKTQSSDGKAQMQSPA
T2 sequence (P03952 20-390 partner limits assumed): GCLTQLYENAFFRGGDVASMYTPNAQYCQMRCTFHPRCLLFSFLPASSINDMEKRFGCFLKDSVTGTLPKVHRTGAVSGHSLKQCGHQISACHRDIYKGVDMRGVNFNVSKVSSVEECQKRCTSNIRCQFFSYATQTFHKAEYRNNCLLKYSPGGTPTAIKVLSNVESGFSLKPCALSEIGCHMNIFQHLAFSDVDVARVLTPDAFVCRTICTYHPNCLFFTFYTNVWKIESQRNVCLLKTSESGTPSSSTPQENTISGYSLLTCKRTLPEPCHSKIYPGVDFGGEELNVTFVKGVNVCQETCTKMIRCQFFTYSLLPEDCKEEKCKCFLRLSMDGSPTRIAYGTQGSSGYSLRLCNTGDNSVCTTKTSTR
T1 sequence (P03951 388-625 limits assumed): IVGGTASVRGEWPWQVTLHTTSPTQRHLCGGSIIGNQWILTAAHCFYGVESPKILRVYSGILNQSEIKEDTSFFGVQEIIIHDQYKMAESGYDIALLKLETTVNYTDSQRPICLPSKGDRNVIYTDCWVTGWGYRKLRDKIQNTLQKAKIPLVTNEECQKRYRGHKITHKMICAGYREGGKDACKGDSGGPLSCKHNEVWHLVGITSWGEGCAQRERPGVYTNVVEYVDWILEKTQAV
T1 sequence (P03951 19-387 partner limits assumed): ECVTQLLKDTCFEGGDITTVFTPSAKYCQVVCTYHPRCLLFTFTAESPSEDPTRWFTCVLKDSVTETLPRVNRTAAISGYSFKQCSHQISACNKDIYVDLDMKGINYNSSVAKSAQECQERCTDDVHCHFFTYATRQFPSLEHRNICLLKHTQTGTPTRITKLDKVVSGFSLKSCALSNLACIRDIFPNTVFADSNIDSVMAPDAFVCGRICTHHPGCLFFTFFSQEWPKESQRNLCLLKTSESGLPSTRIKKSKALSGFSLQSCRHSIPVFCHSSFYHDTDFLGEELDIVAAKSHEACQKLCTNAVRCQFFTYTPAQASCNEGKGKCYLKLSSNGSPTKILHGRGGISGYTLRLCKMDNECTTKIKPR

IC50 (human factor XIa) | IC50 (human plasma kallikrein) | Structure (SMILES)
36 nM | 59 nM | CCCC(C(=O)Nc1ccc2nccnc2c1)n1cc(OC)c(-c2cc(Cl)ccc2OCC(F)(F)F)cc1=O (racemic) [Example 64, N-(Quinoxalin-6-yl)-2-{4-[5-chloro-2-(2,2,2-trifluoroethoxy)phenyl]-5-methoxy-2-oxopyridin-1(2H)-yl}pentanamide]
0.52 nM | 15 nM | COc1cn(C(CC2COCCO2)C(=O)Nc2ccc(C(=O)O)cc2)c(=O)cc1-c1cc(Cl)ccc1OCC(F)(F)F (single isomer, unassigned) [Example 62, 4-{[2-{4-[5-Chloro-2-(2,2,2-trifluoroethoxy)phenyl]-5-methoxy-2-oxopyridin-1(2H)-yl}-3-(1,4-dioxan-2-yl)propanoyl]amino}benzoic acid]
1.3 nM | 14 nM | CNC(=O)c1ccc(NC(=O)C(CC2COCCO2)n2cc(OC)c(-c3cc(Cl)ccc3OCC(F)(F)F)cc2=O)cn1 (single isomer, unassigned) [Example 63, 5-{[2-{4-[5-Chloro-2-(2,2,2-trifluoroethoxy)phenyl]-5-methoxy-2-oxopyridin-1(2H)-yl}-3-(1,4-dioxan-2-yl)propanoyl]amino}-N-methylpyridine-2-carboxamide]
2.8 nM | 140 nM | CCCC(C(=O)Nc1ccc(C(=O)O)cc1)n1cc(OC)c(-c2cc(Cl)ccc2OCC(F)(F)F)cc1=O (racemic) [Example 67, 4-{[2-{4-[5-Chloro-2-(2,2,2-trifluoroethoxy)phenyl]-5-methoxy-2-oxopyridin-1(2H)-yl}pentanoyl]amino}benzoic acid]
0.9 nM | 33 nM | COc1cn(C(C[C@@H]2CCCCO2)C(=O)Nc2ccc(C(=O)O)cc2)c(=O)cc1-c1cc(Cl)ccc1OCC(F)(F)F (stereo partly drawn) [Example 49, 4-[(2-{4-[5-Chloro-2-(2,2,2-trifluoroethoxy)phenyl]-5-methoxy-2-oxopyridin-1(2H)-yl}-3-[(2S)-tetrahydro-2H-pyran-2-yl]propanoyl)amino]benzoic acid]
3 nM | 90 nM | COc1cn(C(C[C@@H]2CCCCO2)C(=O)Nc2ccc(C(N)=O)nc2)c(=O)cc1-c1cc(Cl)ccc1OCC(F)(F)F (stereo partly shown) [Example 54]
7.1 nM | 120 nM | COc1cn(C(C[C@H](C)OC)C(=O)Nc2ccc(C(N)=O)nc2)c(=O)cc1-c1cc(Cl)ccc1OCC(F)(F)F (stereo partly drawn) [Example 56, 5-[[(4S)-2-[4-[5-Chloro-2-(2,2,2-trifluoroethoxy)phenyl]-5-methoxy-2-oxo-1-pyridyl]-4-methoxypentanoyl]amino]pyridine-2-carboxamide]

Further lines, the molecule ahead of its results:

Structure (SMILES) | IC50 (human factor XIa) | IC50 (human plasma kallikrein)
COc1cn(C(CC2COCCO2)C(=O)Nc2ccc(C(N)=O)c(F)c2)c(=O)cc1-c1cc(Cl)ccc1OCC(F)F (stereo not shown) [Example 32, 4-{[2-{4-[5-Chloro-2-(2,2-difluoroethoxy)phenyl]-5-methoxy-2-oxopyridin-1(2H)-yl}-3-(1,4-dioxan-2-yl)propanoyl]amino}-2-fluorobenzamide] | 9.7 nM | 160 nM
COc1cn(C(Cc2ccn(C)n2)C(=O)Nc2ccc3nn(C)cc3c2)c(=O)cc1-c1cc(Cl)ccc1OCC(F)(F)F (racemic) [Example 14, 2-{4-[5-Chloro-2-(2,2,2-trifluoroethoxy)phenyl]-5-methoxy-2-oxopyridin-1(2H)-yl}-N-(2-methyl-2H-indazol-5-yl)-3-(1-methyl-1H-pyrazol-3-yl)propanamide] | 9.3 nM | 45 nM
CNC(=O)c1ccc(NC(=O)C(Cc2ccn(C)n2)n2cc(OC)c(-c3cc(Cl)ccc3OCC(F)(F)F)cc2=O)cn1 (racemic) [Example 15, 5-{[2-{4-[5-Chloro-2-(2,2,2-trifluoroethoxy)phenyl]-5-methoxy-2-oxopyridin-1(2H)-yl}-3-(1-methyl-1H-pyrazol-3-yl)propanoyl]amino}-N-methylpyridine-2-carboxamide] | 6.4 nM | 35 nM
COc1cn(C(CCOC(C)(C)C)C(=O)Nc2ccc3nn(C)cc3c2)c(=O)cc1-c1cc(Cl)ccc1OCC(F)(F)F (racemic) [Example 9, 4-tert-Butoxy-2-{4-[5-chloro-2-(2,2,2-trifluoroethoxy)phenyl]-5-methoxy-2-oxopyridin-1(2H)-yl}-N-(2-methyl-2H-indazol-5-yl)butanamide] | 14 nM | 57 nM
COc1cn(C(C[C@H]2CCCCO2)C(=O)Nc2ccc(C(=O)O)cc2)c(=O)cc1-c1cc(Cl)ccc1OCC(F)(F)F (stereo partly drawn) [Example 20, 4-[(2-{4-[5-Chloro-2-(2,2,2-trifluoroethoxy)phenyl]-5-methoxy-2-oxopyridin-1(2H)-yl}-3-[(2R)-tetrahydro-2H-pyran-2-yl]propanoyl)amino]benzoic acid] | 2.5 nM | 120 nM
COc1cn(C(CCOC2(C)CCC2)C(=O)Nc2ccc(C(N)=O)nc2)c(=O)cc1-c1cc(Cl)ccc1OCC(F)(F)F (racemic) [Example 60, 5-[[2-[4-[5-Chloro-2-(2,2,2-trifluoroethoxy)phenyl]-5-methoxy-2-oxo-1-pyridyl]-4-(1-methylcyclobutoxy)butanoyl]amino]pyridine-2-carboxamide] | 17 nM | 84 nM
COc1cn(C(CCOC(C)(C)C)C(=O)Nc2ccc(C(=O)O)cc2)c(=O)cc1-c1cc(Cl)ccc1OCC(F)(F)F (racemic) [Example 7, 4-[(4-tert-Butoxy-2-{4-[5-chloro-2-(2,2,2-trifluoroethoxy)phenyl]-5-methoxy-2-oxopyridin-1(2H)-yl}butanoyl)amino]benzoic acid] | 0.71 nM | 34 nM
COc1cn(C(CC2COCCO2)C(=O)Nc2ccc3nn(C)cc3c2)c(=O)cc1-c1cc(Cl)ccc1OCCF (stereo not shown) [Example 48, 2-{4-[5-Chloro-2-(2-fluoroethoxy)phenyl]-5-methoxy-2-oxopyridin-1(2H)-yl}-3-(1,4-dioxan-2-yl)-N-(2-methyl-2H-indazol-5-yl)propanamide] | 15 nM | 150 nM
COc1cn(C(CCOC(C)(C)C)C(=O)Nc2ccc(C(N)=O)nc2)c(=O)cc1-c1cc(Cl)ccc1OCC(F)F (racemic) [Example 27, 5-[(4-tert-Butoxy-2-{4-[5-chloro-2-(2,2-difluoroethoxy)phenyl]-5-methoxy-2-oxopyridin-1(2H)-yl}butanoyl)amino]pyridine-2-carboxamide] | 18 nM | 95 nM
COCCC(C(=O)Nc1ccc(C(N)=O)c(F)c1)n1cc(OC)c(-c2cc(Cl)ccc2OCC(F)(F)F)cc1=O (racemic) [Example 3, 4-[(2-{4-[5-Chloro-2-(2,2,2-trifluoroethoxy)phenyl]-5-methoxy-2-oxopyridin-1(2H)-yl}-4-methoxybutanoyl)amino]-2-fluorobenzamide] | 14 nM | 100 nM
COCCC(C(=O)Nc1ccc(C(=O)O)cc1)n1cc(OC)c(-c2cc(Cl)ccc2OCC(F)(F)F)cc1=O (single isomer, unassigned) [Example 2, 4-[(2-{4-[5-Chloro-2-(2,2,2-trifluoroethoxy)phenyl]-5-methoxy-2-oxopyridin-1(2H)-yl}-4-methoxybutanoyl)amino]benzoic acid] | 0.28 nM | 15 nM
CNC(=O)c1ccc(NC(=O)C(CCOC(C)(C)C)n2cc(OC)c(-c3cc(Cl)ccc3OCC(F)(F)F)cc2=O)cn1 (racemic) [Example 12, 5-[(4-tert-Butoxy-2-{4-[5-chloro-2-(2,2,2-trifluoroethoxy)phenyl]-5-methoxy-2-oxopyridin-1(2H)-yl}butanoyl)amino]-N-methylpyridine-2-carboxamide] | 12 nM | 60 nM
COc1cn(C(CC2COCCO2)C(=O)Nc2ccc(C(=O)O)cc2)c(=O)cc1-c1cc(Cl)ccc1OCC(F)(F)F (stereo not shown) [Example 17, 4-{[2-{4-[5-Chloro-2-(2,2,2-trifluoroethoxy)phenyl]-5-methoxy-2-oxopyridin-1(2H)-yl}-3-(1,4-dioxan-2-yl)propanoyl]amino}benzoic acid] | 0.82 nM | 47 nM
